The source of these data is patent US20210198277A1, “AMINE-SUBSTITUTED ARYL OR HETEROARYL COMPOUNDS” (Epizyme, Inc., priority 2016, published 2021).

Read-outs that look alike come from different tables or passages of the source. Bounds are passed on as bounds.

The target in this test is T1, EHMT2 (Homo sapiens, UniProt Q96KQ7).
T1 construct: host or cells: MDA-MB-231
T1 sequence (Q96KQ7 1-1210): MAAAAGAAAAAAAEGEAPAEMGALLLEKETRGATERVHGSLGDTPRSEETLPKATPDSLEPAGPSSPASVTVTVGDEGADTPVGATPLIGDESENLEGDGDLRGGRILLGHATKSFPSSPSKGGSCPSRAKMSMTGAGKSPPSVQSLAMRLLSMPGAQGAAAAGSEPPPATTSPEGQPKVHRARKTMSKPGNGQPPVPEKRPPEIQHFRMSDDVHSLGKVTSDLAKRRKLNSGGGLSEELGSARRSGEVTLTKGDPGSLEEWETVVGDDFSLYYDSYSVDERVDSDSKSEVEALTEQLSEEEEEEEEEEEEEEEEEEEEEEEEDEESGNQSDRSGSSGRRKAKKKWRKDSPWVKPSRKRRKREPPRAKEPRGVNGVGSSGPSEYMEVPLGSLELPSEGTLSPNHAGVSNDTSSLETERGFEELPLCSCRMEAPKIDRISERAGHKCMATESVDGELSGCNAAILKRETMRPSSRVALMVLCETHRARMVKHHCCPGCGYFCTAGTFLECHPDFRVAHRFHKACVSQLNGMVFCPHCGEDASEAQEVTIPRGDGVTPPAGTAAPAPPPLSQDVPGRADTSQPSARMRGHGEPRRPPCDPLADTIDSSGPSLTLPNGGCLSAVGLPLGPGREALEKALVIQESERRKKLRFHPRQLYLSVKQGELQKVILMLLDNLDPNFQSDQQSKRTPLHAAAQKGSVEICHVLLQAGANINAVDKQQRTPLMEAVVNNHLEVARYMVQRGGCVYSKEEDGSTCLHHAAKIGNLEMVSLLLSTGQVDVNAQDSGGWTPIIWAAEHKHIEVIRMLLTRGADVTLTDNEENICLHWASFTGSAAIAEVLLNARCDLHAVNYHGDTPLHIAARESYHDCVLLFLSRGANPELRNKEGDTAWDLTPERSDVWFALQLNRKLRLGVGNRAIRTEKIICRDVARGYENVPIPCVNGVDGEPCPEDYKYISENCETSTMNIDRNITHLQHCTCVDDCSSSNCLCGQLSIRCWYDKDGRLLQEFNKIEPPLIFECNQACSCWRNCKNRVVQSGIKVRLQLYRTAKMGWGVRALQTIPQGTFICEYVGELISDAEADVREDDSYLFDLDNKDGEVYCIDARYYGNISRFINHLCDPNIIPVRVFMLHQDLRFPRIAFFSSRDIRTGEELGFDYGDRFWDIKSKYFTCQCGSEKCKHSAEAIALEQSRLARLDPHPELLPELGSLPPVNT
Kind of test: MDA-MB-231 H3K9me2 in-cell Western assay (EHMT2 ICW). The format is cell-based. The method, boiled down:
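Cells seeded at 3,000/well onto pre-dispensed compound; 30 min RT, then 48 h 37 °C/5% CO2. PFA fix, block, α-H3K9me2 1:800 o/n 4 °C, 800CW secondary + DRAQ5. Odyssey scan 700/800 nm; ratio → % inhibition → 4-parameter IC50.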

Setting [1] is: Table III, MDA-MB-231 H3K9me2 in-cell Western, read-out: EHMT2 ICW (IC50 μM).
[2] abbreviates: Table VI, read-out: EHMT2 ICW IC50.

Take `COc1ccc(NCCCN2CCCC2)cc1Nc1nccc(NCC2CCOCC2)n1` [Compound 352]: the IC50 under setting [1] was above 10 µM.

On to `COc1cc2c(C3CCOCC3)cc(N(C)C)nc2cc1OCCCN1CCCC1` [Compound 825], for which the IC50 under setting [2] is 1 to 10 µM.

For the compound `CNc1ccnc(Nc2ccc(OC)c(OCCCN3CC[C@@H](F)C3)c2)n1` [Compound 353], under setting [1], the IC50 was in the range of 1 to 10 µM.

Turning to `CNc1cc(C2CCCCC2)c2cc(OC)c(OCCCN3CCCC3)cc2n1` [Compound 816], the IC50 under setting [2] lay in the range of 0.1 to 1 µM.

Regarding `CNc1cc(C)nc(Nc2ccc(OC)c(OC[C@H]3C[C@H](N(C)C)C3)c2)n1` [Compound 330], the concentration for half-maximal inhibition (IC50) under setting [1] was above 10 µM.

With `COc1cnc(Nc2nn(C)c3cnccc23)cc1OCCCN1CCCC1` [Compound 795], the IC50 under setting [2] is above 10 µM.

Take `CNc1cc(C2CCN(C(C)=O)CC2)c2cc(OC)c(OCCCN3CCCC3)cc2n1` [Compound 809]: the 50% inhibitory concentration (IC50) under setting [2] is 0.1 to 1 µM.

With `CNc1cc(C)nc(Nc2ccc(OC)c(C#CCN3CCN(C)CC3)c2)n1` [Compound 860], the 50% inhibitory concentration (IC50) under setting [2] is above 10 µM.

With `COc1cnc(Nc2nc(C)nc3[nH]ccc23)cc1OCCCN1CCCC1` [Compound 326, N-(5-methoxy-4-(3-(pyrrolidin-1-yl)propoxy)pyridin-2-yl)-2-methyl-7H-pyrrolo[2,3-d]pyrimidin-4-amine], under setting [1], the IC50 lay within 1 to 10 µM.

On to `CCn1nc(Nc2nccc3[nH]ccc23)cc1COCCN1CCCC1` [Compound 333], for which the IC50 under setting [1] was above 10 µM.

Consider `CNc1cc(C)nc(Nc2ccc(OC)c(C#CC3CCCN3)c2)n1` (stereo not drawn) [Compound 846], for which the IC50 under setting [2] lay in the range of 0.1 to 1 µM.

Turning to `COc1ccc(Nc2ccnc(NCC3CCN(C(C)=O)CC3)n2)cc1OCCCN1CCCC1` [Compound 340], the IC50 under setting [1] is above 10 µM.

Consider `COc1cc2c(C3CCN(CC(F)(F)F)CC3)cc(C)nc2cc1OCCCN1CCCC1` [Compound 837], for which, under setting [2], the IC50 fell in the range of 1 to 10 µM.

Turning to `CCN1CC(COc2cc(Nc3nc(C)cc4[nH]ccc34)ncc2OC)C1` [Compound 613], under setting [2], the half-maximal inhibitory concentration (IC50) was 1 to 10 µM.

Take `CNc1cc(C)nc(Nc2ccc(OC)c(CN[C@H]3CCNC3)c2)n1` [Compound 813]: the IC50 under setting [2] was above 10 µM.

Regarding `CNc1cc(C2CCN(CCOC)CC2)c2cc(OC)c(OCCCN3CCCC3)cc2n1` [Compound 839], under setting [2], the IC50 is below 0.1 µM.

For `COc1ccc(Nc2nccc(Nc3cccc(F)c3)n2)cc1OCCCN1CCCC1` [Compound 349], the IC50 under setting [1] is 1 to 10 µM.

On to `COc1ccc(Nc2ccc3cnn(C)c3c2)cc1OCCCN1CCCC1` [Compound 341], for which the IC50 under setting [1] is above 10 µM.

As for `COc1ccc(Nc2cc(C)[nH]n2)cc1OCCCN1CCCC1` [Compound 796], the IC50 under setting [2] was above 10 µM.

In the case of `CNc1cnnc(Nc2cc(OCCCN3CCCC3)c(OC)cn2)c1` [Compound 322, N^3-(5-methoxy-4-(3-(pyrrolidin-1-yl)propoxy)pyridin-2-yl)-N^5-methylpyridazine-3,5-diamine], the IC50 under setting [1] was 0.1 to 1 µM.

`CNCc1cnc(Nc2ccc(OC)c(OCCCN3CCCC3)c2)nc1` [Compound 339]: the IC50 under setting [1] was above 10 µM.

On to `CNc1cc(C)nc(Nc2cc(OCCCN3CCCC3)c3nc(C)cn3c2)n1` [Compound 616], for which the 50% inhibitory concentration (IC50) under setting [2] lay within 1 to 10 µM.

As to `CNc1cc(C)nc(Nc2ccc(OC)c(C#CC3CCNC3)c2)n1` (stereo not drawn) [Compound 845], the IC50 under setting [2] was 0.1 to 1 µM.

Consider `COc1ccc(Nc2ccc3cnn(C)c3n2)cc1OCCCN1CCCC1` [Compound 257, N-(4-methoxy-3-(3-(pyrrolidin-1-yl)propoxy)phenyl)-1-methyl-1H-pyrazolo[3,4-b]pyridin-6-amine], for which the IC50 under setting [1] is above 10 µM.

In the case of `COc1cc2c(C3CCN(C(C)=O)CC3)cc(C)nc2cc1OCCCN1CCCC1` [Compound 834], the IC50 under setting [2] was 1 to 10 µM.

As for `COc1cc(NC2CCOCC2)ncc1OCC1CCNC1` (stereo not drawn) [Compound 806], under setting [2], the IC50 is above 10 µM.

In the case of `COc1ccc(Nc2cc(C)n(C)n2)cc1OCCCN1CCCC1` [Compound 797], under setting [2], the IC50 is above 10 µM.

On to `COc1cc2c(C3CCN(C)CC3)cc(C#N)nc2cc1OCCCN1CCCC1` [Compound 790], for which the concentration for half-maximal inhibition (IC50) under setting [2] was in the range of 1 to 10 µM.

Turning to `CNc1cc(C)nc(Nc2cc(OCCCN3CCCC3)c3nccn3c2)n1` [Compound 618], under setting [2], the half-inhibitory concentration (IC50) was above 10 µM.

For the compound `COc1cnc(Nc2cc(C)nc3[nH]ccc23)cc1OCCCN1CCCC1` [Compound 336, N-(5-methoxy-4-(3-(pyrrolidin-1-yl)propoxy)pyridin-2-yl)-6-methyl-1H-pyrrolo[2,3-b]pyridin-4-amine], under setting [1], the IC50 was 1 to 10 µM.
